This note sets out measurements from ChEMBL document CHEMBL5316268 (J Med Chem, 2023).

Each structure is given as a SMILES string. Active and inactive are the calls of the source. The rule behind the calls is not given here. Some results are limits rather than exact numbers.

Series [1] is described as follows: Selectivity ratio of IC50 for CD73 in human plasma to IC50 for C-terminal 6His-tagged recombinant human CD73 (27 to 547 residues) expressed in CHO cells. The class given is cell-based.
The target in series [2] is T1, 5'-nucleotidase (Homo sapiens, UniProt P21589). In words: Inhibition of CD73 in human plasma incubated for 15 mins in presence of 15N5-AMP by LC/MS analysis. It is filed as cell-free.
T1 sequence (P21589 whole entry): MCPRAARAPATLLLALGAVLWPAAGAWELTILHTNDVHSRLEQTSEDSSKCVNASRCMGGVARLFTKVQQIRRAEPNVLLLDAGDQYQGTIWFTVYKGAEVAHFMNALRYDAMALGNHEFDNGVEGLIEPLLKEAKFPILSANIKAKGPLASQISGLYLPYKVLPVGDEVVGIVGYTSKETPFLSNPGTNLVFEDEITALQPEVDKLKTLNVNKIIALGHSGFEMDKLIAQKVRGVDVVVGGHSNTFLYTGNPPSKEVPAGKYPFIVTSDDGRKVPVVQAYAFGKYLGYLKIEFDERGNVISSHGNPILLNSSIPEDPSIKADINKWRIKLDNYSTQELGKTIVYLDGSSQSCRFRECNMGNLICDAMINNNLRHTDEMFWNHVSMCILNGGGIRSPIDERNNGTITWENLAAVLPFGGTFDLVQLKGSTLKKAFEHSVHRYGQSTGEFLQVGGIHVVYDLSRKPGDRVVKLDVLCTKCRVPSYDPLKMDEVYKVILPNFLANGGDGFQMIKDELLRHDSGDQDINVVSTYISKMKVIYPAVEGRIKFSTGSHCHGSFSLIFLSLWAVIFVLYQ
The test system of another series is EG7. In words: Antitumor activity against mouse EG7 cells implanted in mouse. It is filed as functional, cell-based.
Series [3] can be described thus: Clearance in CD rat at 1 mg/kg, iv measured for 24 hrs by LC-MS/MS analysis. The class given is ADME, organism-based. The settings on record: in vivo.
Series [4] concerns the target T2, 5'-nucleotidase (Mus musculus, UniProt Q61503).
T2 sequence (Q61503 whole entry): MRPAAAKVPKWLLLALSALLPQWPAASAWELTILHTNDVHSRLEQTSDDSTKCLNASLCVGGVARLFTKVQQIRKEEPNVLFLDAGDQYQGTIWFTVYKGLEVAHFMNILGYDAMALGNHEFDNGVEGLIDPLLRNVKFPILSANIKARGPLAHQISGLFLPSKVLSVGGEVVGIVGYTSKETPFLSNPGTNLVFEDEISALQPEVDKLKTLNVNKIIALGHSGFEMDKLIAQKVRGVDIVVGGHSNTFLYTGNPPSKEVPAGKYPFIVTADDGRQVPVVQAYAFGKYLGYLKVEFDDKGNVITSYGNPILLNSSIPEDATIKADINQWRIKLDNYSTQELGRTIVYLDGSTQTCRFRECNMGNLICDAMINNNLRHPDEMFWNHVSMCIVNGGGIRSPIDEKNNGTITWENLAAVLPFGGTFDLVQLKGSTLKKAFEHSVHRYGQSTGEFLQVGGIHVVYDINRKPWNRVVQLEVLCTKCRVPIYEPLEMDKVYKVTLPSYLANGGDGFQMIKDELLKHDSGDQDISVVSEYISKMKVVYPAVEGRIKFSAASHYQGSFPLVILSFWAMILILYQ
Briefly: Inhibition of C-terminal 6His-tagged recombinant mouse CD73 (29 to 549 residues) expressed in CHO cells incubated for 1 hr by malachite green assay. The class given is cell-based.

For series [5], the target named is T1, 5'-nucleotidase. In words: Inhibition of soluble C-terminal 6His-tagged recombinant human CD73 (27 to 547 residues) expressed in CHO cells incubated for 1 hr by malachite green based spectrophotometer assay. The class given is cell-based.
In series [6] the target is T1, 5'-nucleotidase. Briefly: Inhibition of recombinant human CD73.
The target of series [7] is T1, 5'-nucleotidase. Briefly: Inhibition of cell surface anchored CD73 (unknown origin) expressed in human SK-MEL-28 cells incubated for 30 mins by malachite green assay. It is filed as cell-based.
Series [8] is described as follows: Oral bioavailability in CD rat at 50 mg/kg measured for 24 hrs by LC-MS/MS analysis. It is filed as ADME, organism-based. To be noted: CD, in vivo.

`C#C[C@@]1(O)[C@@H](COC(Cc2ccc(-c3ccc[nH]c3=O)cc2)(C(=O)O)C(=O)O)O[C@@H](n2cnc3c(N)nc(Cl)nc32)[C@@H]1O`: the Ratio IC50 in [1] is 3.8. The IC50 at 5'-nucleotidase [2] is 0.38 nM.

In the case of `C#C[C@@]1(O)[C@@H](COC(Cc2ccccc2)(C(=O)O)C(=O)O)O[C@@H](n2cnc3c(N)nc(Cl)nc32)[C@@H]1O`, the outcome with EG7 was Active. In series [3], this molecule showed a clearance of 13 mL/min/kg. The IC50 on 5'-nucleotidase [4] is 7.3 nM.

Turning to `C#C[C@@]1(O)[C@@H](COC(Cc2ccccc2)(C(=O)O)C(=O)O)O[C@@H](n2cnc3c(NC(C)C)cc(Cl)nc32)[C@@H]1O`, the values for the IC50 at 5'-nucleotidase [5] and on 5'-nucleotidase [2] were 2 nM and 160 nM, respectively. This molecule had a clearance in [3] of 0.91 mL/min/kg.

`C#C[C@@]1(O)[C@@H](COC(Cc2ccc(-c3ccccc3C(=O)O)cc2)(C(=O)O)C(=O)O)O[C@@H](n2cnc3c(N)nc(Cl)nc32)[C@@H]1O`: in [1], the Ratio IC50 is 14. Further, the clearance in series [3] amounted to 2.9 mL/min/kg. On 5'-nucleotidase [2], the IC50 is 2.8 nM.

Consider `C#C[C@@]1(O)[C@@H](COC(Cc2ccccc2)(C(=O)O)C(=O)O)O[C@@H](n2cnc3c(NCc4ccccc4)nc(Cl)nc32)[C@@H]1O`, for which the clearance in series [3] is 6.3 mL/min/kg. The IC50 at 5'-nucleotidase [2] is more than 100 nM.

`Nc1nc(Cl)nc2c1ncn2[C@@H]1O[C@H](COC(Cc2ccccc2)(C(=O)O)C(=O)O)[C@@H](O)[C@@H]1F`: on 5'-nucleotidase [6], the IC50 was determined as 159 nM.

For `C#C[C@@]1(O)[C@@H](COC(Cc2ccccc2)(C(=O)O)C(=O)O)O[C@@H](n2cnc3c(N(C)C)cc(Cl)nc32)[C@@H]1O`, the 50% inhibitory concentration (IC50) is 2.1 nM on 5'-nucleotidase [5] and 41 nM on 5'-nucleotidase [2]. Also, in series [3], the clearance is 5.9 mL/min/kg.

As to `C#C[C@@]1(O)[C@@H](COC(Cc2ccccc2)(C(=O)O)C(=O)O)O[C@@H](n2cnc3c(NC(C)C)nc(Cl)nc32)[C@@H]1O`, the clearance in series [3] is 1.4 mL/min/kg. The IC50 at 5'-nucleotidase [2] came to 50 nM.

Take `C#C[C@@]1(O)[C@@H](COC(Cc2ccccc2)(C(=O)O)C(=O)O)O[C@@H](n2cnc3c(NCCO)nc(Cl)nc32)[C@@H]1O`: the clearance in series [3] was determined as 7.5 mL/min/kg. Further, on 5'-nucleotidase [2], the IC50 was 7.2 nM.

On to `C#C[C@@]1(O)[C@@H](COC(Cc2ccccc2)(C(=O)O)C(=O)O)O[C@@H](n2cnc3c(NC)nc(Cl)nc32)[C@@H]1O`, for which the clearance in series [3] turned out to be 10 mL/min/kg. In addition, at 5'-nucleotidase [2], the half-maximal inhibitory concentration (IC50) came out at 15.5 nM.

Take `C#C[C@@]1(O)[C@@H](COC(Cc2ccccc2)(C(=O)O)C(=O)O)O[C@@H](n2cnc3c(N(C)C)nc(Cl)nc32)[C@@H]1O`: the clearance in series [3] was 18 mL/min/kg. For the same molecule, the IC50 at 5'-nucleotidase [2] worked out at 16 nM.

In turn, `C#C[C@@]1(O)[C@@H](COC(Cc2ccccc2)(C(=O)O)C(=O)O)O[C@@H](n2cnc3c(NCC)nc(Cl)nc32)[C@@H]1O` gave a clearance in series [3] of 7.8 mL/min/kg. The IC50 on 5'-nucleotidase [2] is 6.5 nM.

The molecule `CC#C[C@@]1(O)[C@@H](COC(Cc2ccccc2)(C(=O)O)C(=O)O)O[C@@H](n2cnc3c(N)nc(Cl)nc32)[C@@H]1O` returned a clearance in [3] of 9.9 mL/min/kg. The IC50 on 5'-nucleotidase [2] came to 1.6 nM.

`CC[C@@]1(O)[C@@H](COC(Cc2ccccc2)(C(=O)O)C(=O)O)O[C@@H](n2cnc3c(N)nc(Cl)nc32)[C@@H]1O`: the IC50 on 5'-nucleotidase [5] amounted to 200 nM.

In turn, `C#C[C@@]1(O)[C@@H](COC(Cc2ccccc2)(C(=O)O)C(=O)O)O[C@@H](n2cnc3c(N4CC(O)C4)nc(Cl)nc32)[C@@H]1O` returned a clearance in [3] of 17 mL/min/kg. In addition, on 5'-nucleotidase [2], the 50% inhibitory concentration (IC50) was 5.4 nM.

For the molecule `C#C[C@@]1(O)[C@@H](COC(Cc2ccc(-c3ccccc3)cc2)(C(=O)O)C(=O)O)O[C@@H](n2cnc3c(N)nc(Cl)nc32)[C@@H]1O`, in series [1], the Ratio IC50 came to 52. In series [3], this molecule had a clearance of 64 mL/min/kg. Also, the IC50 at 5'-nucleotidase [2] amounted to 15.6 nM.

In [3], `C#C[C@@]1(O)[C@@H](COC(Cc2ccccc2)(C(=O)O)C(=O)O)O[C@@H](n2cnc3c(N[C@@H](C)c4ccccc4)nc(Cl)nc32)[C@@H]1O` showed a clearance of 9.2 mL/min/kg. Besides, at 5'-nucleotidase [2], the IC50 was 208 nM.

Take `CN(C(=O)c1ccccc1)c1ccc(CC(OC[C@H]2O[C@@H](n3cnc4c(N)nc(Cl)nc43)[C@@H](F)[C@@H]2O)(C(=O)O)C(=O)O)cc1`: the IC50 on 5'-nucleotidase [6] worked out at 9 nM.

Consider `C#C[C@@]1(O)[C@@H](COC(Cc2ccccc2)(C(=O)O)C(=O)O)O[C@@H](n2cnc3c(NCC4CC4)nc(Cl)nc32)[C@@H]1O`, for which, in series [3], the clearance stood at 3.7 mL/min/kg. At 5'-nucleotidase [2], the IC50 was determined as 11.5 nM.

In turn, `C[C@@]1(O)[C@@H](COC(Cc2ccccc2)(C(=O)O)C(=O)O)O[C@@H](n2cnc3c(N)nc(Cl)nc32)[C@@H]1O` gave an IC50 on 5'-nucleotidase [7] of 169 nM.

On to `C#C[C@@]1(O)[C@@H](COC(Cc2ccc(N3CCCCC3=O)cc2)(C(=O)O)C(=O)O)O[C@@H](n2cnc3c(N)nc(Cl)nc32)[C@@H]1O`, for which, in series [1], the Ratio IC50 turned out to be 1.

For `C#C[C@@]1(O)[C@@H](COC(Cc2ccccc2)(C(=O)O)C(=O)O)O[C@@H](n2cnc3c(N[C@H](C)c4ccccc4)nc(Cl)nc32)[C@@H]1O`, the clearance in series [3] stood at 1 mL/min/kg. Moreover, the IC50 at 5'-nucleotidase [2] is 917 nM.

For `Nc1nc(Cl)nc2c1ncn2[C@@H]1O[C@H](COC(Cc2ccccc2)(C(=O)O)C(=O)O)[C@](O)(C#CC2CC2)[C@H]1O`, the clearance in series [3] is 54 mL/min/kg. Further, the IC50 at 5'-nucleotidase [2] turned out to be 1.5 nM.

For the molecule `C#C[C@@]1(O)[C@@H](COC(Cc2ccccc2)(C(=O)O)C(=O)O)O[C@@H](n2cnc3c(-c4cccs4)nc(Cl)nc32)[C@@H]1O`, on 5'-nucleotidase [2], the concentration for half-maximal inhibition (IC50) turned out to be 136 nM.

`Nc1nc(Cl)nc2c1ncn2[C@@H]1O[C@H](COC(Cc2ccccc2)(C(=O)O)C(=O)O)[C@@H](O)[C@H]1O` showed a bioavailability in series [8] of 1.8%. For the same molecule, the IC50 against 5'-nucleotidase [7] was 434 nM; at 5'-nucleotidase [6] it was 100 nM. The same molecule showed a clearance in series [3] of 20.4 mL/min/kg.

As for `Nc1ncnc2c1ncn2[C@@H]1O[C@H](COP(=O)(O)CP(=O)(O)O)[C@@H](O)[C@H]1O` [PHOSPHOMETHYLPHOSPHONIC ACID ADENOSYL ESTER], on 5'-nucleotidase [6], the IC50 turned out to be 6090 nM.
